Bridges are numbered along the chain shown (N, C = ends).
Assays:
[1] = test system: SARS-CoV-2 Omicron BA.1 variant; conditions: 48 h
Omicron XBB.1.5 spike = assay type: cell-based, SARS-CoV-2

**Q.** Which results are given for “VAACNLPIVRGPCRAFIQLWAFDAVKGKCVLFPYGGCQGNGNKFYSEKECREYCGVPGDGD (disulfide 4-54, 13-37, 29-50) [Trypstatin]”?
**A.** IC50 [1]: 120 nM; activity against Omicron XBB.1.5 variant in a pseudoparticle assay (Omicron XBB.1.5 spike): verified activity

From patent EP4545091A1 (priority 2023, dated 2025)
